Several values for one entry are separate records, joined by “and”; a condition that tells them apart may be missing. Equal values may be shown once.
Target: T1, human TAS2R1 (Homo sapiens, UniProt Q9NYW7)
T1 construct: expressed in transfected cells; host or cells: HEK293T-Gα16gust44
T1 sequence (Q9NYW7 1-299): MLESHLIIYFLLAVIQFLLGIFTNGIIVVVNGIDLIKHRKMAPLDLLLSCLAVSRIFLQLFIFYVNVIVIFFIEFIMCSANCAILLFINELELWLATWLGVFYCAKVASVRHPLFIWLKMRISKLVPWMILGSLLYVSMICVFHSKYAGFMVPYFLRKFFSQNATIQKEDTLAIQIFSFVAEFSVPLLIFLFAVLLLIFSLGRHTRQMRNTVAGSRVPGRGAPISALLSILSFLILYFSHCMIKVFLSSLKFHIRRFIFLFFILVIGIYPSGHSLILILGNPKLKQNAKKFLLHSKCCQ
Assay: Calcium imaging assay (FLIPR), HEK293T-Gα16gust44 cells transfected with human TAS2R1
Assay type: cell-based
Summary of the method: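 Read-out is Fluo-4 fluorescence change (ΔF/F) after automated application of bile acids (DMSO stocks) to transiently transfected cells. Values are corrected for empty-vector cells and normalized to buffer. Dose-response from three independent experiments in duplicate; threshold concentration set at p < 0.01 versus mock.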

SMILES: C[C@H](CCC(=O)O)[C@H]1CC[C@H]2[C@@H]3CC[C@@H]4C[C@H](O)CC[C@]4(C)[C@H]3CC[C@]12C [Lithocholic Acid, lithocholic acid]
- Efficacy = maximal amplitude (ΔF/F) (TAS2R1, bile acids, mean): 0.1221
- Efficacy (maximal amplitude ΔF/F), individual data points (TAS2R1, bile acids, single replicates, listed as LCA): 0.1505 and 0.1173 and 0.0984
- RLU (Time 0 s): 0 RLU
- RLU (Time 2.015 s): -14.5951 RLU
- RLU (Time 4.015 s): -7.128 RLU
- RLU (Time 6.015 s): 1.224 RLU
- RLU (Time 8.015 s): 0.3531 RLU
- RLU (Time 12.015 s): -16.4638 RLU
- RLU (Time 14.015 s): -4.132 RLU
- RLU (Time 16.015 s): -20.8125 RLU
- RLU (Time 18.015 s): 1.1121 RLU
- RLU (Time 18.796 s): 25.7864 RLU
- RLU (Time 20.796 s): 69.0707 RLU
- RLU (Time 22.796 s): 111.584 RLU
- RLU (Time 24.796 s): 140.624 RLU
- RLU (Time 26.796 s): 217.83 RLU
- RLU (Time 28.796 s): 298.948 RLU
- RLU (Time 30.796 s): 381.71 RLU
- RLU (Time 32.796 s): 449.564 RLU
- RLU (Time 34.796 s): 475.411 RLU
- RLU (Time 36.796 s): 563.041 RLU
- RLU (Time 38.796 s): 583.488 RLU
- RLU (Time 40.796 s): 612.54 RLU
- RLU (Time 42.796 s): 644.654 RLU
- RLU (Time 44.796 s): 679.197 RLU
- RLU (Time 46.796 s): 695.288 RLU
- RLU (Time 48.796 s): 701.461 RLU
- RLU (Time 50.796 s): 756.471 RLU
- RLU (Time 52.796 s): 734.503 RLU
- RLU (Time 54.796 s): 776.344 RLU
- RLU (Time 56.796 s): 818.875 RLU
- RLU (Time 58.796 s): 815.634 RLU
- RLU (Time 60.796 s): 814.863 RLU
- RLU (Time 62.796 s): 815.671 RLU
- RLU (Time 64.796 s): 814.539 RLU
- RLU (Time 66.796 s): 840.236 RLU
- RLU (Time 68.796 s): 839.926 RLU
- RLU (Time 70.796 s): 857.451 RLU
- RLU (Time 72.796 s): 860.887 RLU
- RLU (Time 74.796 s): 876.325 RLU
- RLU (Time 76.796 s): 873.737 RLU
- RLU (Time 78.796 s): 889.618 RLU
- RLU (Time 80.796 s): 892.644 RLU
- RLU (Time 82.796 s): 897.83 RLU
- RLU (Time 84.796 s): 886.895 RLU
- RLU (Time 86.796 s): 870.09 RLU
- RLU (Time 88.796 s): 907.185 RLU
- RLU (Time 90.796 s): 877.458 RLU
- RLU (Time 92.796 s): 891.158 RLU
- RLU (Time 94.796 s): 920.191 RLU
- RLU (Time 96.796 s): 905.406 RLU
- RLU (Time 98.796 s): 898.952 RLU
- RLU (Time 100.796 s): 892.147 RLU
- RLU (Time 102.796 s): 894.991 RLU
- RLU (Time 104.796 s): 894.373 RLU
- RLU (Time 106.796 s): 867.268 RLU
- RLU (Time 108.796 s): 872.524 RLU
- RLU (Time 110.796 s): 857.451 RLU
- RLU (Time 112.796 s): 864.824 RLU
- RLU (Time 114.796 s): 846.501 RLU
- RLU (Time 116.796 s): 868.556 RLU
- RLU (Time 118.796 s): 842.814 RLU
- RLU (Time 120.796 s): 851.852 RLU
- RLU (Time 122.796 s): 861.523 RLU
- RLU (Time 124.796 s): 851.498 RLU
- RLU (Time 126.796 s): 820.705 RLU
- RLU (Time 128.796 s): 833.006 RLU
- RLU (Time 130.796 s): 811.797 RLU
- RLU (Time 132.796 s): 786.781 RLU
- RLU (Time 134.796 s): 809.512 RLU
- RLU (Time 136.796 s): 797.52 RLU
- RLU (Time 137.562 s): 816.516 RLU
- RLU (Time 143.562 s): 785.521 RLU
- RLU (Time 149.562 s): 770.713 RLU
- RLU (Time 155.562 s): 645 RLU
- RLU (Time 161.562 s): 650.189 RLU
- RLU (Time 167.562 s): 602.288 RLU
- RLU (Time 173.562 s): 588.477 RLU
- RLU (Time 179.562 s): 570.66 RLU
- RLU (Time 185.562 s): 562.77 RLU
- RLU (Time 191.562 s): 515.911 RLU
- RLU (Time 197.562 s): 487.382 RLU
- RLU (Time 203.562 s): 468.151 RLU
- RLU (Time 209.562 s): 433.685 RLU
- RLU (Time 215.562 s): 406.858 RLU
- RLU (Time 221.562 s): 386.034 RLU
- RLU (Time 227.562 s): 427.313 RLU
- RLU (Time 233.562 s): 409.48 RLU
- RLU (Time 239.562 s): 419.888 RLU
- RLU (Time 245.562 s): 384.802 RLU
- RLU (Time 293.562 s): 250.547 RLU
- RLU (Time 299.562 s): 240.784 RLU
- RLU (calcium trace, sheet TAS2R1, Time 305.562 s): 255.305 RLU
- RLU (calcium trace, sheet TAS2R1, Time 311.562 s): 251.175 RLU
- RLU (calcium trace, sheet TAS2R1, Time 317.562 s): 242.237 RLU
- RLU (calcium trace, sheet TAS2R1, Time 323.562 s): 237.346 RLU
- RLU (calcium trace, sheet TAS2R1, Time 329.562 s): 210.072 RLU
- RLU (calcium trace, sheet TAS2R1, Time 335.562 s): 207.541 RLU
- RLU (calcium trace, sheet TAS2R1, Time 341.562 s): 224.802 RLU
- RLU (calcium trace, sheet TAS2R1, Time 347.562 s): 199.834 RLU
- RLU (calcium trace, sheet TAS2R1, Time 353.562 s): 189.761 RLU
- RLU (calcium trace, sheet TAS2R1, Time 359.562 s): 182.753 RLU
- Activation threshold concentration TAS2R1 (lowest concentration with significantly increased fluorescence vs empty vector (p < 0.01)): 0.3 µM and 0.30 µM
